The structures appear in SMILES notation.

The target in assay [1] is T1, 3-hydroxy-3-methylglutaryl-coenzyme A reductase (Homo sapiens, UniProt P04035).
T1 sequence (P04035 whole entry): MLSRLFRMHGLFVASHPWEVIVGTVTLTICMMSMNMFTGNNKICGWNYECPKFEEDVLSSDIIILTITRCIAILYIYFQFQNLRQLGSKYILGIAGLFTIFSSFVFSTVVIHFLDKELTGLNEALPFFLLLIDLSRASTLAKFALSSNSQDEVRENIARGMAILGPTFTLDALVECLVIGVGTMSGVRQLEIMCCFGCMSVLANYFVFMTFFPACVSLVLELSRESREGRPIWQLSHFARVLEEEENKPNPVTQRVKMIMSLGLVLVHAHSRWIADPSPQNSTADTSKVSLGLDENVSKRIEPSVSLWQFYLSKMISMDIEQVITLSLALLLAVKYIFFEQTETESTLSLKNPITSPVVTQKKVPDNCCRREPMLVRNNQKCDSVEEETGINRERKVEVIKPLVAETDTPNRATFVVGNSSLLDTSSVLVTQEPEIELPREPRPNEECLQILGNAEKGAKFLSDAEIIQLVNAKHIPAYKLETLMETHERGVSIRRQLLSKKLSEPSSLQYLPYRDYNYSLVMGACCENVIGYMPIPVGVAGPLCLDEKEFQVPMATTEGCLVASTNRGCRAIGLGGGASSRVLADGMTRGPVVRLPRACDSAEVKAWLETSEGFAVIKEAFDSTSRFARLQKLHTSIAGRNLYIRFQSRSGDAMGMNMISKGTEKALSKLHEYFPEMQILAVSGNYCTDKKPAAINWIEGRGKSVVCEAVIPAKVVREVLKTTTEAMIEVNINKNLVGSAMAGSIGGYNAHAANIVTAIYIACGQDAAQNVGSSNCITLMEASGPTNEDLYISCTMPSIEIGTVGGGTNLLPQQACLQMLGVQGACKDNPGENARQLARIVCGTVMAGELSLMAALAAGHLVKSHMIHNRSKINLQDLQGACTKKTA
Nature of the assay: Inhibitory constant against HMG-CoA reductase with alpha asarone.

The target in assay [2] is T1, 3-hydroxy-3-methylglutaryl-coenzyme A reductase. Nature of the assay: Inhibitory concentration against HMG-CoA reductase.
Assay [3] shares this target. Nature of the assay: Inhibitory constant against HMG-CoA reductase.

Take `CC(C)c1nc(N(C)S(C)(=O)=O)nc(-c2ccc(F)cc2)c1/C=C/[C@@H](O)C[C@@H](O)CC(=O)O` [ROSUVASTATIN]: the results for the Ki in assay [1] and in assay [3] were 71 µM and 0.0009 µM, respectively. This molecule registered an IC50 in assay [2] of 0.0054 µM.

In assay [2], `CC(O)(CC(=O)O)CC(=O)O` [MEGLUTOL] gave an IC50 of 4 µM. Besides, the inhibition constant Ki in assay [3] is 0.0235 µM.

As a reminder, the Ki is the dissociation constant of the complex between target and ligand, obtained from inhibition or displacement. Lower therefore signals tighter binding. The term IC50 denotes the concentration needed to halve the response being measured.

The values are drawn from ChEMBL document CHEMBL1141986, “Molecular docking of the highly hypolipidemic agent alpha-asarone with the catalytic portion of HMG-CoA reductase” (Bioorg Med Chem Lett, 2005).
